The supplement of paper PMC10307832

What was measured:
Assay in all cases: relative viability (nuclei count vs DMSO), 5 days (fraction); higher = more cells survive
JZL-184 + Dasatinib = compound: C1CN(CCC1C(C2=CC3=C(C=C2)OCO3)(C4=CC5=C(C=C4)OCO5)O)C(=O)OC6=CC=C(C=C6)[N+](=O)[O-] [JZL-184] + Cc1nc(Nc2ncc(C(=O)Nc3c(C)cccc3Cl)s2)cc(N2CCN(CCO)CC2)n1 [Dasatinib] (partner 0.075 µM)
Procedure, shortened: (§1)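 Medians of duplicate plates are given as relative viability. That measure is the nuclei count in treated wells divided by the count in vehicle wells. Counts were taken on 4× images of lung cancer cell lines in 1536-well plates, 5 days after pin-tool dosing the day after seeding with one drug alone or a fixed anchor-drug dose plus five library-drug doses (not always all listed) in √10 steps.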

JZL-184 + Decitabine = compound: C1CN(CCC1C(C2=CC3=C(C=C2)OCO3)(C4=CC5=C(C=C4)OCO5)O)C(=O)OC6=CC=C(C=C6)[N+](=O)[O-] [JZL-184] + Nc1ncn([C@H]2C[C@H](O)[C@@H](CO)O2)c(=O)n1 [Decitabine] (partner 2 µM)
Procedure, shortened: as §1

JZL-184 + Navitoclax = compound: C1CN(CCC1C(C2=CC3=C(C=C2)OCO3)(C4=CC5=C(C=C4)OCO5)O)C(=O)OC6=CC=C(C=C6)[N+](=O)[O-] [JZL-184] + CC1(C)CCC(c2ccc(Cl)cc2)=C(CN2CCN(c3ccc(C(=O)NS(=O)(=O)c4ccc(N[C@H](CCN5CCOCC5)CSc5ccccc5)c(S(=O)(=O)C(F)(F)F)c4)cc3)CC2)C1 [Navitoclax] (partner 0.5 µM)
Procedure, shortened: as §1

JZL-184 + Foretinib = compound: C1CN(CCC1C(C2=CC3=C(C=C2)OCO3)(C4=CC5=C(C=C4)OCO5)O)C(=O)OC6=CC=C(C=C6)[N+](=O)[O-] [JZL-184] + COc1cc2c(Oc3ccc(NC(=O)C4(C(=O)Nc5ccc(F)cc5)CC4)cc3F)ccnc2cc1OCCCN1CCOCC1 [Foretinib] (partner 0.25 µM)
Procedure, shortened: as §1

JZL-184 + Tozasertib = compound: C1CN(CCC1C(C2=CC3=C(C=C2)OCO3)(C4=CC5=C(C=C4)OCO5)O)C(=O)OC6=CC=C(C=C6)[N+](=O)[O-] [JZL-184] + Cc1cc(Nc2cc(N3CCN(C)CC3)nc(Sc3ccc(NC(=O)C4CC4)cc3)n2)n[nH]1 [Tozasertib] (partner 0.1 µM)
Procedure, shortened: as §1

Cell Line	relative viability (JZL-184 + Dasatinib; first compound 0.04 µM)	relative viability (JZL-184 + Dasatinib; first compound 0.4 µM)	relative viability (JZL-184 + Dasatinib; first compound 1.265 µM)	relative viability (JZL-184 + Dasatinib; first compound 4 µM)	relative viability (JZL-184 + Decitabine; first compound 0.04 µM)	relative viability (JZL-184 + Decitabine; first compound 0.4 µM)	relative viability (JZL-184 + Decitabine; first compound 1.265 µM)	relative viability (JZL-184 + Decitabine; first compound 4 µM)	relative viability (JZL-184 + Navitoclax; first compound 0.04 µM)	relative viability (JZL-184 + Navitoclax; first compound 0.4 µM)	relative viability (JZL-184 + Navitoclax; first compound 1.265 µM)	relative viability (JZL-184 + Navitoclax; first compound 4 µM)	relative viability (JZL-184 + Foretinib; first compound 0.04 µM)	relative viability (JZL-184 + Foretinib; first compound 0.4 µM)	relative viability (JZL-184 + Foretinib; first compound 1.265 µM)	relative viability (JZL-184 + Foretinib; first compound 4 µM)	relative viability (JZL-184 + Tozasertib; first compound 0.04 µM)	relative viability (JZL-184 + Tozasertib; first compound 0.4 µM)	relative viability (JZL-184 + Tozasertib; first compound 1.265 µM)	relative viability (JZL-184 + Tozasertib; first compound 4 µM)
NCI-H2023	0.713	0.549	0.587	0.48	0.254	0.225	0.175	0.213	1.07	0.942	1.02	0.963	1.01	0.874	0.978	0.79	0.356	0.318	0.345	0.296
NCI-H2085	0.236	0.234	0.299	0.261	–	0.538	0.521	0.627	1.1	1.18	1.13	1.08	0.954	0.827	1.12	0.96	–	0.812	0.845	0.753
NCI-H2087	0.905	0.905	0.716	0.875	0.271	0.301	0.415	0.237	1	0.997	1.18	0.996	1.01	1.03	1.17	1.19	0.23	0.229	0.268	0.244
NCI-H2126	0.612	0.639	0.607	0.612	0.597	0.608	0.558	0.555	0.847	0.807	0.897	0.873	1.15	1.09	1.14	1.12	0.89	0.749	0.883	0.767
NCI-H2170	0.654	0.476	0.577	0.598	0.497	0.475	0.473	0.476	0.66	0.589	0.621	0.547	1.05	0.941	0.977	0.966	0.83	0.646	0.787	0.66
NCI-H2347	0.277	0.305	0.29	0.369	–	0.577	0.657	0.644	0.68	0.706	0.82	0.903	0.771	0.884	1.13	1.3	0.447	0.442	0.551	0.662
NCI-H2405	0.222	0.21	0.225	0.231	0.792	0.694	0.738	0.767	0.97	0.847	1.03	0.884	1.08	1.06	1.13	1	0.759	0.729	0.815	0.732
NCI-H3122	0.918	0.718	0.872	0.778	0.411	0.458	0.375	0.433	1.03	0.98	0.968	1.01	1.03	0.954	0.944	0.983	0.432	0.393	0.453	0.396
